Measurements reported in patent publication US20230255953A1, “USE OF ROLUPERIDONE IN PREVENTING RELAPSE IN SCHIZOPHRENIA PATIENTS” (Minerva Neurosciences, Inc., priority 2022, published 2023).

System: patients with negative symptoms of schizophrenia
Experiment: Integrated analysis of Studies #1 and #2 (pooled ITT): PANSS-derived scores (NSFS, total, positive and negative subscales), DB, OL and whole study
Format: in vivo, human
Set-up: key to NSFS Score change from Baseline, Median: change from Baseline in PANSS NSFS points; higher score = more severe
Conditions: pooled ITT; for NSFS Score change from Baseline, Median / PANSS Negative Subscale Score change from Baseline, Mean (SD) / PANSS Negative Subscale Score change from Baseline, Median / PANSS Total Score change from Baseline, Mean (SD) / PANSS Total Score change from Baseline, Median / PANSS Positive Subscale Score change from Baseline, Mean (SD) / PANSS Positive Subscale Score change from Baseline, Median / NSFS Score change from Baseline, Mean (SD): Roluperidone Total; for NSFS Score change from Baseline, Median / PANSS Negative Subscale Score change from Baseline, Mean (SD) / PANSS Negative Subscale Score change from Baseline, Median / PANSS Total Score change from Baseline, Mean (SD) / PANSS Total Score change from Baseline, Median / NSFS Score change from Baseline, Mean (SD): DB; for NSFS Change from Active BL to Week 24, Mean (SD) / NSFS Change from Active BL to Week 24, Median / NSFS Change from Active BL to Week 52, Mean (SD) / NSFS Change from Active BL to Week 52, Median / NSFS Change from Active BL to Week 54, Mean (SD) / NSFS Change from Active BL to Week 54, Median / NSFS Change from Open-label BL to Week 24, Mean (SD) / NSFS Change from Open-label BL to Week 24, Median / NSFS Change from Open-label BL to Week 52, Mean (SD) / NSFS Change from Open-label BL to Week 52, Median / NSFS Change from Open-label BL to Week 54, Mean (SD) / NSFS Change from Open-label BL to Week 54, Median / NSFS Change from Study BL to Week 24, Mean (SD) / NSFS Change from Study BL to Week 24, Median / NSFS Change from Study BL to Week 52, Mean (SD) / NSFS Change from Study BL to Week 52, Median / NSFS Change from Study BL to Week 54, Mean (SD) / NSFS Change from Study BL to Week 54, Median: Roluperidone at Any Time
Method: The primary integrated analysis of the efficacy of Roluperidone compared with placebo for the treatment of negative symptoms of schizophrenia is based on the change from Baseline in the PANSS Marder's negative symptoms factor score (in this document referred to as NSFS) to Week 12. Efficacy is also supported by the analysis of change from Baseline in the PSP Total score and the CGI-S to Week 12.
The PANSS was assessed at the time points described in Table 4.
The PANSS-derived endpoints used in these studies and the integrated analyses are described in Table 5A and a summary of the individual PANSS items used by physicians and clinicians to measure the severity of the symptoms in a schizophrenia patient is provided in Table 5B. The scale is divided into three parts, a positive scale, which provides a “PANSS positive subscore”, a negative scale, which provides a “PANSS negative subscore”, and general psychopathology scale. The sum of these three parts provides a PANSS total score, which ranges from 30 to 210 (where higher scores indicate more severe symptoms). (See Kay, S. R., et al. “The positive and negative syndrome scale (PANSS) for schizophrenia,” Schizophr Bulletin, 13(2), 261-276 (1987) and Gopal, S., et al. “Improvement of Negative Symptoms in Schizophrenia with Paliperidone Palmitate 1-Month and 3-Month Long-Acting Injectables: Results from a Phase 3 Non-Inferiority Study” Neuropsychiatric Disease and Treatment, 681-690, DOI: 10.2147/NDT.5226296, both of which are incorporated by reference.)
The Efficacy data from Study Nos. 1 and 2 were pooled. The majority of patients in the pooled ITT population completed the DB period (502 patients overall, 66.3%), with similar rates in each treatment group (placebo: 69.8%, 32 mg Roluperidone: 65.3%, and 64 mg Roluperidone: 63.8%) (Table 12). The majority (62.7%) of those who completed the DB period entered the OL period. The most common reason for discontinuation during the DB period among patients overall was withdrawal of consent (15.6%), followed by adverse events (7.3%) and lack of efficacy (5.4%) (Table 12). […] Approximately twice as many patients in the Roluperidone groups (32 mg: 8.5%; 64 mg: 9.1%) discontinued due to adverse events compared with patients in the placebo group (4.3%). More patients in the placebo group discontinued due to lack of efficacy (6.7%) than in the Roluperidone groups (32 mg: 4.4%; 64 mg: 5.1%). The low number of patients who discontinued due to lack of efficacy or withdrawal of consent probably reflects a low level of worsening of positive symptoms.
The integrated analysis supporting the efficacy of Roluperidone as a treatment for the negative symptoms of schizophrenia in adults is presented below.

Substance: 1H-Isoindol-1-one,2-[ [1-[2-(4-fluorophenyl)-2-oxoethyl]-4-piperidinyl]methyl]-2,3-dihydro-, hydrochloride, hydrate (1:1:2) [Roluperidone]
- NSFS Score change from Baseline, Median (Week 4): −2.0
- PANSS Negative Subscale Score change from Baseline, Mean (SD) (Week 4): −2.5 (2.75)
- PANSS Negative Subscale Score change from Baseline, Median (Week 4): −2.0
- PANSS Total Score change from Baseline, Mean (SD) (Week 4): −4.8 (7.13)
- PANSS Total Score change from Baseline, Median (Week 4): −5.0
- PANSS Positive Subscale Score change from Baseline, Mean (SD) (Week 4): −0.4 (2.49)
- PANSS Positive Subscale Score change from Baseline, Median (Week 4): 0.0
- NSFS Score change from Baseline, Mean (SD) (Week 8): −3.4 (3.25)
- NSFS Score change from Baseline, Median (Week 8): −3.0
- PANSS Negative Subscale Score change from Baseline, Mean (SD) (Week 8): −3.6 (3.38)
- PANSS Negative Subscale Score change from Baseline, Median (Week 8): −3.0
- PANSS Total Score change from Baseline, Mean (SD) (Week 8): −6.5 (8.35)
- PANSS Total Score change from Baseline, Median (Week 8): −6.0
- PANSS Positive Subscale Score change from Baseline, Mean (SD) (Week 8): −0.5 (2.55)
- PANSS Positive Subscale Score change from Baseline, Median (Week 8): 0.0
- NSFS Score change from Baseline, Mean (SD) (Week 12): −3.8 (3.39)
- NSFS Score change from Baseline, Median (Week 12): −4.0
- PANSS Negative Subscale Score change from Baseline, Mean (SD) (Week 12): −4.0 (3.59)
- PANSS Negative Subscale Score change from Baseline, Median (Week 12): −3.0
- PANSS Total Score change from Baseline, Mean (SD) (Week 12): −7.3 (8.66)
- PANSS Total Score change from Baseline, Median (Week 12): −7.0
- PANSS Positive Subscale Score change from Baseline, Mean (SD) (Week 12): −0.6 (2.64)
- PANSS Positive Subscale Score change from Baseline, Median (Week 12): 0.0
- NSFS Change from Active BL to Week 24, Mean (SD) (32 mg): −3.7 (3.45)
- NSFS Change from Active BL to Week 24, Median (32 mg): −4.0
- NSFS Change from Active BL to Week 52, Mean (SD) (32 mg): −5.7 (3.95)
- NSFS Change from Active BL to Week 52, Median (32 mg): −5.0
- NSFS Change from Active BL to Week 54, Mean (SD) (32 mg): −5.7 (3.55)
- NSFS Change from Active BL to Week 54, Median (32 mg): −6.0
- NSFS Change from Open-label BL to Week 24, Mean (SD) (32 mg): −1.4 (2.51)
- NSFS Change from Open-label BL to Week 24, Median (32 mg): −1.0
- NSFS Change from Open-label BL to Week 52, Mean (SD) (32 mg): −3.3 (3.23)
- NSFS Change from Open-label BL to Week 52, Median (32 mg): −3.0
- NSFS Change from Open-label BL to Week 54, Mean (SD) (32 mg): −3.3 (3.45)
- NSFS Change from Open-label BL to Week 54, Median (32 mg): −3.0
- NSFS Change from Study BL to Week 24, Mean (SD) (32 mg): −4.9 (3.61)
- NSFS Change from Study BL to Week 24, Median (32 mg): −5.0
- NSFS Change from Study BL to Week 52, Mean (SD) (32 mg): −6.9 (3.95)
- NSFS Change from Study BL to Week 52, Median (32 mg): −6.0
- NSFS Change from Study BL to Week 54, Mean (SD) (32 mg): −6.8 (3.80)
- NSFS Change from Study BL to Week 54, Median (32 mg): −6.0
- NSFS Change from Active BL to Week 24, Mean (SD) (64 mg): −4.2 (3.92)
- NSFS Change from Active BL to Week 24, Median (64 mg): −4.0
- NSFS Change from Active BL to Week 52, Mean (SD) (64 mg): −6.7 (4.23)
- NSFS Change from Active BL to Week 52, Median (64 mg): −7.0
- NSFS Change from Active BL to Week 54, Mean (SD) (64 mg): −6.6 (4.40)
- NSFS Change from Active BL to Week 54, Median (64 mg): −7.0
- NSFS Change from Open-label BL to Week 24, Mean (SD) (64 mg): −1.6 (3.02)
- NSFS Change from Open-label BL to Week 24, Median (64 mg): −1.0
- NSFS Change from Open-label BL to Week 52, Mean (SD) (64 mg): −4.3 (3.77)
- NSFS Change from Open-label BL to Week 52, Median (64 mg): −4.0
- NSFS Change from Open-label BL to Week 54, Mean (SD) (64 mg): −4.0 (3.88)
- NSFS Change from Open-label BL to Week 54, Median (64 mg): −4.0
- NSFS Change from Study BL to Week 24, Mean (SD) (64 mg): −5.0 (3.49)
- NSFS Change from Study BL to Week 24, Median (64 mg): −5.0
- NSFS Change from Study BL to Week 52, Mean (SD) (64 mg): −7.5 (3.61)
- NSFS Change from Study BL to Week 52, Median (64 mg): −7.0
- NSFS Change from Study BL to Week 54, Mean (SD) (64 mg): −7.4 (3.81)
- NSFS Change from Study BL to Week 54, Median (64 mg): −7.0
- NSFS Change from Active BL to Week 24, Mean (SD) (Total): −5.1 (3.52)
- NSFS Change from Active BL to Week 24, Median (Total): −5.0
- NSFS Change from Active BL to Week 52, Mean (SD) (Total): −7.0 (3.84)
- NSFS Change from Active BL to Week 52, Median (Total): −6.0
- NSFS Change from Active BL to Week 54, Mean (SD) (Total): −7.0 (3.56)
- NSFS Change from Active BL to Week 54, Median (Total): −7.0
- NSFS Change from Open-label BL to Week 24, Mean (SD) (Total): −1.3 (2.56)
- NSFS Change from Open-label BL to Week 24, Median (Total): −1.0
- NSFS Change from Open-label BL to Week 52, Mean (SD) (Total): −3.2 (2.99)
- NSFS Change from Open-label BL to Week 52, Median (Total): −3.0
- NSFS Change from Open-label BL to Week 54, Mean (SD) (Total): −3.2 (3.29)
- NSFS Change from Open-label BL to Week 54, Median (Total): −3.0
- NSFS Change from Study BL to Week 24, Mean (SD) (Total): −5.1 (3.52)
- NSFS Change from Study BL to Week 24, Median (Total): −5.0
- NSFS Change from Study BL to Week 52, Mean (SD) (Total): −7.0 (3.84)
- NSFS Change from Study BL to Week 52, Median (Total): −6.0
- NSFS Change from Study BL to Week 54, Mean (SD) (Total): −7.0 (3.56)
- NSFS Change from Study BL to Week 54, Median (Total): −7.0
